The results in this text go back to patent EP4790066A1, “GLP-1R/GIPR/GCGR TRIPLE AGONIST ANALOGUE AND USE THEREOF” (Shenzhen Bay Laboratory, priority 2023, dated 2025).

*1 amine or outer side, *2 acyl side, *3 side chain or, on linkers, in order; H or OH if unused. Where a SMILES comes first, the peptide text is derived from it. Bridges are numbered along the chain shown (N, C = ends). [ ]: non-standard residue; d: D form. X1 = O=C(O)CCCCCCCCCCCCCCCCCCC(=O)N[C@@H](CCCCNC(=O)COCCOCCNC(=O)COCCOCCNC(=O)CCC(=O)N(CCNC(=O)C[*:1])CCNC(=O)C[*:2])C(=O)O; Phe(2-F) = N[C@@H](Cc1ccccc1F)C(=O)O; Iva = CC[C@](C)(N)C(=O)O; Aib = CC(C)(N)C(=O)O

The experiment deals with T1, GIPR (Homo sapiens, UniProt P48546).
T1 construct: expressed in transfected cells
T1 sequence (P48546 22-466): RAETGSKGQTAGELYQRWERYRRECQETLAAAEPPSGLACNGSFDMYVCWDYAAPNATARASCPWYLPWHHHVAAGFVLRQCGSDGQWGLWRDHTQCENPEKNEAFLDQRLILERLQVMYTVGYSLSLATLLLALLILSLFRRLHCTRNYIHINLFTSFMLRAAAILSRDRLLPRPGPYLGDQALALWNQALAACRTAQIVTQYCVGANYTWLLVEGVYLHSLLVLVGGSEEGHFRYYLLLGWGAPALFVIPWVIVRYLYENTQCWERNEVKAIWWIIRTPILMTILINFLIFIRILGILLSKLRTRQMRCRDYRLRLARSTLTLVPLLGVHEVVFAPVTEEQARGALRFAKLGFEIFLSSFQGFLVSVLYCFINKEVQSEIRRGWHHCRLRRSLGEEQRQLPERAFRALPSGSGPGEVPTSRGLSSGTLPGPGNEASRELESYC
The experiment is described as follows: CreLuc method (CRE-luciferase reporter), HEK293/pGM-CREB-L-Luc/GIPR pool. Type of experiment: cell-based. Conditions: 6 h incubation, read-out: EC50 (pM) for each receptor GIPR. Put shortly: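 Stable HEK293 pools co-expressing each receptor with a CRE-luciferase reporter were plated at 20,000 cells/well in freestyle medium and treated with compound dilution series for 6 h at 37 °C. Luminescence was read with ONE-GLO to derive EC50.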

One may read the EC50 as the concentration needed to bring the measured effect to its halfway point. Regarding `CC[C@H](C)[C@@H]1NC(=O)[C@H](Cc2ccccc2)NC(=O)[C@@H](NC(=O)C(C)(C)NC(=O)[C@H](CCC(N)=O)NC(=O)[C@H](C)NC(=O)[C@H](CCCCNC(C)=O)NC(=O)[C@H](CCCCN)NC(=O)[C@H](CC(=O)O)NC(=O)[C@H](CC(C)C)NC(=O)[C@](C)(CC)NC(=O)[C@@H](NC(=O)[C@H](CO)NC(=O)[C@H](Cc2ccc(O)cc2)NC(=O)[C@H](CC(=O)O)NC(=O)[C@H](CO)NC(=O)[C@@H](NC(=O)[C@H](Cc2ccccc2F)NC(=O)[C@@H](NC(=O)CNC(=O)[C@H](CCC(N)=O)NC(=O)C(C)(C)NC(=O)[C@@H](N)Cc2ccc(O)cc2)[C@@H](C)O)[C@@H](C)O)[C@@H](C)CC)CSCC(=O)NCCN(C(=O)CCC(=O)NCCOCCOCC(=O)NCCOCCOCC(=O)NCCCC[C@H](NC(=O)CCCCCCCCCCCCCCCCCCC(=O)O)C(=O)O)CCNC(=O)CSC[C@@H](C(=O)NCC(=O)NCC(=O)N2CCC[C@H]2C(=O)N[C@@H](CO)C(=O)N[C@@H](CO)C(=O)NCC(=O)N[C@@H](C)C(=O)N2CCC[C@H]2C(=O)N2CCC[C@H]2C(=O)N2CCC[C@H]2C(=O)N[C@@H](CO)C(N)=O)NC(=O)[C@H](CC(C)C)NC(=O)[C@H](CC(C)C)NC(=O)[C@H](Cc2ccc(O)cc2)NC(=O)[C@H](CCC(=O)O)NC1=O` [TG52] (H-Y[Aib]QGT[Phe(2-F)]TSDYSI[Iva]LDKK(Ac)AQ[Aib]CFIEYLLCGGPSSGAPPPS-NH2; linker 21-28 via X1), the 50% effective concentration (EC50) came to 18.9 pM.
